# Measured values reported in paper PMC10799935, “Discovery of a peripheral 5HT2A antagonist as a clinical candidate for metabolic dysfunction-associated steatohepatitis” (Nature Communications, 2024).
# Values joined by “and” are separate entries in the source; they are usually repeats but may differ in a detail not shown here. Equal values may be shown once. Read-outs that look alike come from different tables or passages of the source.
# Assays:
# in vitro = conditions: African green monkey
# [1] = Pharmacokinetic study in dogs; type: in vivo, Beagle dogs; conditions: dog
# Protocol: The experimental protocol for this study was approved by the IACUC of KPC Co., Ltd. (No. KPC IACUC-P203046; Beagle dogs) or QuBEST BIO (No.QBIACUC-A20131). All relevant ethical guidelines were followed. Beagle male dogs (11 ~ 20 months old) were purchased from ORIENT BIO Inc. and were housed in the barrier animal facility of KPC Co., Ltd. under a regular light-dark cycle (12-hour light/12-hour dark) at 21.1–23.4°C with 55.3–72.2% humidity. Food (standard irradiated pelleted commercial laboratory diet, Cargill Agri Purina, 300 g/dog.day) and water were provided ad libitum. All study dogs were returned to the laboratory colony after the study without any euthanasia. Sprague-Dawley male rats (7 weeks old) were purchased from SAMTAKOBIOKOREA, Inc. and were housed in the barrier animal facility of Nonclinical Research Center, QuBEST BIO under a regular light-dark cycle (12-hour light/12-hour dark) at 19.7–22.7°C with 54.5–65.6% humidity. Food (standard irradiated pelleted commercial laboratory diet, Purina Rodent Chow, 38057) and water were provided ad libitum. All study rats were euthanized by CO2 gas upon study completion.
# Blood samples were collected at the scheduled times up to 24 h post-dose (IV: 0.083, 0.25, 0.5, 1, 2, 4, 8, 12 and 24 h post-dose, PO: 0.25, 0.5, 1, 2, 4, 8, 12 and 24 h post-dose). Determination of compound 11c in plasma was performed by UHPLC-MS/MS. Pharmacokinetic parameters were calculated by noncompartmental analysis using Phoenix® WinNonlin® (Ver. 8.3‘, Certara).
# TNF-α = test: CDAHFD mice: TNF-α immunohistochemical staining; type: in vivo, mouse; design: TNF-α immunohistochemical staining (TNF-a area), individual mouse / TNF-α immunohistochemical staining (TNF-a area), Average: unit not given here; conditions: for TNF-α immunohistochemical staining (TNF-a area), Average / TNF-α immunohistochemical staining (TNF-a area), individual mouse: CDAHFD mice; for TNF-α immunohistochemical staining (TNF-a area), Average: group average n=5, CDAHFD+Vehicle 9.246, Vehicle 2.978; for TNF-α immunohistochemical staining (TNF-a area), individual mouse: individual animals No. 1-5 (Fig.4g)
# Source text: C57BL/6 J male mice were purchased from the Japan SLC. Inc (Hamamatsu, Japan). Mice (5 weeks old) were fed Teklad Certitied Irradiated Global 18% protein rodent diet purchased from Dooyeol Biotech Co. Ltd (Seoul, South Korea) during the acclimation period. The liver fibrosis/inflammation-induced groups were CDAHFD-fed (A06071302, Research diet). […] All animal experiments complied with the relevant ethical regulations.
# Mouse liver tissues were fixed in 4% formalin solution (Sigma–Aldrich, St. Louis, MO, USA) and embedded in paraffin. 4-μm-thick liver sections were deparaffinized in xylene, and rehydrated through descending grades of ethanol. To evaluate liver fibrosis, sections were stained with Sirius red solution and subjected to immunohistochemical staining. Tissue sections, after deparaffinization, underwent a 16-hour incubation in a solution containing 0.1% Direct Red 80 (365548, Sigma-Aldrich) dissolved in Picric acid (P-201, Spectrum Chemical, CA, USA) for Sirius red staining. The sections were briefly immersed in a 0.01 N HCl solution (1129, Ducksan, Republic of Korea) for 2 min. and then rinsed with distilled water for destaining. Subsequently, the sections underwent dehydration through […] grades of ethanol. Immunohistochemical staining was performed using the Polyview Plus HRP-DAB (anti-Rabbit) Kit (ENZ-KIT159-0150, ENZO Life Science, NY, USA) following the manufacturers’ instructions. Deparaffinized sections were boiled in IHC-TekTM Epitope Retrieval solution (IW-1100, IHCWORLD, MD, USA) for 45 min., cooled for 1 h, incubated in a 3% H2O2 solution (69355-0350, JUNSEI, Japan) for 15 min., washed, and then incubated overnight with primary antibodies (α-SMA, ab5694, Abcam, 1:500 dilution; TNF-α, ab6671, Abcam, 1:100 dilution and IL-1β, ab9722, Abcam, 1:100 dilution). Subsequently, the sections were treated with Polyview Plus HRP for 2 h and developed with DAB chromogen/substrate. Stained […] sections were confirmed by light microscopy (Olympus BX53 upright microscope, Tokyo, Japan). The degree of hepatic fibrosis and immunohistochemical staining was quantified by morphometric analysis of stained liver sections using NIH ImageJ software.
# 5HT2B (h) = target: T1, 5HT2B (h) (Homo sapiens, UniProt P41595); test: 5HT subtype antagonism assay (Eurofins Cerep): 5HT2B; type: cell-based
# T1 construct: host or cells: CHO cells
# Protocol: The derivatives were evaluated at a concentration of 1 μM for their antagonist activity on the 5HT2A receptor (Tables 1–3)[33],[34]. Human 5HT2A stably transfected HEK293 cells (a type of cell derived from kidney embryos)[20] were seeded in a 96-well plate (Costar; 3603) at a density of 9 × 10^4 in 100 μL of minimum essential medium (Welgene; LM007-86) containing 10% dialyzed fetal bovine serum (Gibco; 30067–334) and 1% penicillin/streptomycin (Gibco; 15140-122) and kept in a 37 °C incubator for 24 h. The cells were stained with 100 μL of cytosolic calcium dye using the FLIPR calcium 6 assay solution (Molecular devices, #R8190) supplemented with 2.5 mM probenecid (Sigma; P8761) and incubated for 1 h at 37 °C. After 1 h, the designated amount of the compound was treated in each well and incubated for another 1 h at 37 °C. Then, the cells were loaded in a Flexstation 3 microplate reader (Molecular Devices; FlexStaion) and 50 μL of 5 μM 5HT (serotonin hydrochloride, Sigma; H9523) was injected from a source plate (Nunc 96-well polystyrene conical bottom MicroWell Plate, Thermo; 249662) and the fluorescence intensity (Ex/Em-485nm/ 525 nm) was measured. […]
# Antagonism assay Source Stimulus Incubation Measured Detection Method […]
# [2] = male, beagle, plasma, 5 mg/kg, IV (5 mpk)
# [3] = male, beagle, plasma, 5 mg/kg, PO (5 mpk)
# T1 sequence (P41595 whole entry): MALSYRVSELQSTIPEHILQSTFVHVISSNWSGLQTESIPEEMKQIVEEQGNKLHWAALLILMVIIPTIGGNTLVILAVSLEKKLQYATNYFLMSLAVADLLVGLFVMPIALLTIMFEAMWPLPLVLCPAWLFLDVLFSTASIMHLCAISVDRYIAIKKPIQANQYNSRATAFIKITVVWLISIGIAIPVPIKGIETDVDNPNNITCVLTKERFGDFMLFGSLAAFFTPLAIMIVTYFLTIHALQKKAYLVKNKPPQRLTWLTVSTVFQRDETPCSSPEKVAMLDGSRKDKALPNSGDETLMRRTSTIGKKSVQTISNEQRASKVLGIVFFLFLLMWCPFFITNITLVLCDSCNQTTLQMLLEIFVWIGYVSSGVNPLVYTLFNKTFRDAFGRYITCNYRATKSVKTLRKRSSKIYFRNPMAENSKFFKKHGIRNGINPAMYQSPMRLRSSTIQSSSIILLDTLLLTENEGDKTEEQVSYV
structure (smiles),measurement,setting,value
Cc1nc2n(c(=O)c1CCN1CCC(=C3c4ccc(Cl)cc4CCc4cccnc43)CC1)CCCC2O (stereo not shown) [Compound 11c],IC50,in vitro,> 100000 nM
same,V,[1]; IV (5 mpk),4.36 L/kg
same,bioavailability,"[1]; male, beagle, plasma, po, 5 mpk, dogs (summary statement), read-out: oral bioavailability",> 60%
same,AUC,[1]; [2],16800 ng·h/mL
same,clearance,[1]; [2],7 mL/min/kg
same,half-life,[1]; [2],8.6 h
same,AUC,[1]; [3],19100 ng·h/mL
same,half-life,[1]; [3],10.2 h
same,bioavailability,"[1]; male, beagle, plasma, 5 mg/kg, PO (5 mpk), read-out: F (%)",73%
same,"TNF-α immunohistochemical staining (TNF-a area), Average",TNF-α; 11c 5 mpk,4.057
same,"TNF-α immunohistochemical staining (TNF-a area), individual mouse",TNF-α; 11c 5 mpk,3.240 and 5.741 and 5.588 and 3.146 and 2.573
same,"TNF-α immunohistochemical staining (TNF-a area), Average",TNF-α; 11c 10mpk,5.049
same,"TNF-α immunohistochemical staining (TNF-a area), individual mouse",TNF-α; 11c 10mpk,7.848 and 3.111 and 8.161 and 2.686 and 3.441
same,TNF-α expression (immunohistochemical staining),TNF-α; CDAHFD-fed 11c vs CDAHFD-fed vehicle group,significant decrease
same,Selectivity 2B: % inhibition,5HT2B (h); concentration not given,94%
same,IC50,5HT2B (h); read-out: Selectivity 2B: IC50,290 nM
